Oligonucleotides are written 5' to 3', each unit as a sugar letter and its base; * is a phosphorothioate linkage, no mark a phosphodiester; rarer units and linkages stand in square brackets, end groups in braces. Plain capitals give the bases only. l = locked nucleic acid (LNA); [5mC] = 5-methylcytosine; d = 2'-deoxy (DNA)
Tests used:
Format in all cases: cell-based, human
15PC3 cells = test: Cell proliferation assay (MTS), 15PC3; conditions: FIG. 3A
Description: (§1) Cells were cultured in the medium as described below and maintained at 37° C. at 95% humidity and 5% CO2. Cells were routinely passaged 2-3 times weekly.
(§2) 15PC-3 (Santaris Pharma): The human prostate cancer cell line 15PC-3 was cultured in DMEM (ATCC)+10% fetal bovine serum (FBS)+2 mM Glutamax™ I+gentamicin (25 μg/ml). A549 (ATCC): The human lung cancer cell line A549 was cultured in F12K Medium (ATCC)+10% FBS+2 mM Glutamax™ I+Penicillin (100 u/ml)/Streptomycin (100 μg/ml). DU145 (ATCC): The human prostate cancer cell line DU145 was cultured in Eagle's Minimum Essential Medium (ATCC)+10% FBS+2 mM Glutamax™ I+Penicillin (100 u/ml)/Streptomycin (100 μg/ml). […]
(§3) . The treated cells were then subjected to proliferation assay by MTS and ErbB3 mRNA quantitation by qRT-PCR, respectively (see below). […]
(§4) The proliferation assay was carried out by using CellTiter 96® Aqueous One solution reagent (Promega, Cat# 358B) following the manufacturer's instructions. […] The absorbance was measured at […] with a reference of 650 nm using an ELISA reader (Molecular Devices). The background for the assay was measured from wells containing only medium and was subtracted from the signal from the wells containing cells. The absorbance at 490 nm (OD490 nm) is proportional to the viable cell number in culture.

ErbB3 mRNA [1] = test: ErbB3 mRNA level by qRT-PCR in SKBR3 cells; conditions: ON180 alone, FIG. 5C
Description: (§5) The cells were treated with either ON180 or an LNA-containing oligonucleotide having a scrambled base sequence as set forth in SEQ ID NO: 236 (hereinafter referred to as “ONCONT”) using the cationic liposome formulation Lipofectamine™-2000 (Invitrogen™) as transfection vehicle. Cells were seeded in 6-well plates (NUNC™) and treated when 50-60% confluent. The transfection of cells by ON180 was performed as described by the manufacturer using serum-free OptiMEM® (Gibco™) and 5 μg/ml Lipofectamine™-2000. ONCONT served as a negative control. The treated cells were incubated at 37° C. for 4 hours and then washed with OptiMEM®, after which regular serum-containing medium was added.
(§6) The treated cells were then subjected to proliferation assay by MTS and ErbB3 mRNA quantitation by qRT-PCR, respectively (see below). Each experiment was performed at least two times.
(§7) Total RNA was extracted from the treated cells as described above, using Qiagen RNeasy Plus Mini Kit (Cat# 74134). One-step qRT-PCR was used to examine ErbB3 mRNA levels in the cells by using the QuantiTect Probe RT-PCR kit (Cat#: 204443; Qiagen) according to the manufacturer's instructions. The sequences for the primers and probes were as follows: […]
(§8) The qRT-PCR was performed on the Applied Biosystems 7500 Fast Real-Time PCR System using 120 ng of total RNA sample. GAPDH mRNA served as an internal control.

A431 cells = test: Cell proliferation assay (MTS), A431; conditions: ON180 alone, Lipofectamine-2000 transfection, FIG. 6A, 6B, read-out: cell growth IC50
Description: (§9) Cells were routinely passaged 2-3 times weekly.
(§10) 15PC-3 (Santaris Pharma): The human prostate cancer cell line 15PC-3 was cultured in DMEM (ATCC)+10% fetal bovine serum (FBS)+2 mM Glutamax™ I+gentamicin (25 μg/ml). A549 (ATCC): The human lung cancer cell line A549 was cultured in F12K Medium (ATCC)+10% FBS+2 mM Glutamax™ I+Penicillin (100 u/ml)/Streptomycin (100 μg/ml). DU145 (ATCC): The human prostate cancer cell line DU145 was cultured in Eagle's Minimum Essential Medium (ATCC)+10% FBS+2 mM Glutamax™ I+Penicillin (100 u/ml)/Streptomycin (100 μg/ml). A431 (ATCC): The human epidermoid cancer cell line A431 was cultured in DMEM (ATCC)+10% fetal bovine serum (FBS)+2 mM Glutamax™ I+Penicillin (100 u/ml)/Streptomycin (100 μg/ml). SKBR-3 (ATCC): The human breast cancer cell line SKBR3 was cultured in McCoy's 5A Medium. Modified (ATCC)+10% FBS+2 mM Glutamax™ I+Penicillin (100 u/ml)/Streptomycin (100 μg/ml).
(§11) Cells were seeded in 6-well plates (NUNC™) and treated when 50-60% confluent. The transfection of cells by ON180 was performed as described by the manufacturer using serum-free OptiMEM® (Gibco™) and 5 μg/ml Lipofectamine™-2000. ONCONT served as a negative control. The treated cells were incubated at 37° C. for 4 hours and then washed with OptiMEM®, after which regular serum-containing medium was added.

H1993 cells = test: Cell proliferation assay (MTS), H1993; conditions: ON180 alone, Lipofectamine-2000 transfection, FIG. 2A, 2B, read-out: cell growth IC50
Description: as §9, §10, §11

ErbB3 mRNA [2] = test: ErbB3 mRNA level by qRT-PCR in A549 cells; conditions: ON180 alone, FIG. 1C, read-out: expression of ErbB3 mRNA IC50
Description: as §5, §6, §7, §8

ErbB3 mRNA [3] = test: ErbB3 mRNA level by qRT-PCR in 15PC3 cells; conditions: ON180 alone, FIG. 3C
Description: as §5, §6, §7, §8

DU145 cells = test: Cell proliferation assay (MTS), DU145; conditions: FIG. 4A
Description: as §1, §2, §3, §4

ErbB3 mRNA [4] = test: ErbB3 mRNA level by qRT-PCR in A431 cells; conditions: ON180 alone, FIG. 6C
Description: as §5, §6, §7, §8

ErbB3 mRNA [5] = test: ErbB3 mRNA level by qRT-PCR in H1993 cells; conditions: ON180 alone, FIG. 2C
Description: as §5, §6, §7, §8

ErbB3 mRNA [6] = test: ErbB3 mRNA level by qRT-PCR in DU145 cells; conditions: ON180 alone, FIG. 4C
Description: as §5, §6, §7, §8

SKBR3 cells = test: Cell proliferation assay (MTS), SKBR3; conditions: FIG. 5A
Description: as §1, §2, §3, §4

A549 cells = test: Cell proliferation assay (MTS), A549; conditions: FIG. 1A
Description: as §1, §2, §3, §4

| Compound | IC50 (15PC3 cells; ON180 alone, Lipofectamine-2000 transfection, 3B, read-out: cell growth IC50) | expression of ErbB3 mRNA (ErbB3 mRNA [1]) | IC50 (A431 cells) | IC50 (H1993 cells) | IC50 (ErbB3 mRNA [2]) | ErbB3 mRNA (ErbB3 mRNA [3]) | IC50 (DU145 cells; ON180 alone, Lipofectamine-2000 transfection, 4B, read-out: cell growth IC50) | ErbB3 mRNA (ErbB3 mRNA [4]) | expression of ErbB3 mRNA (ErbB3 mRNA [5]) | expression of ErbB3 mRNA (ErbB3 mRNA [6]) | IC50 (SKBR3 cells; ON180 alone, Lipofectamine-2000 transfection, 5B, read-out: cell growth IC50) | IC50 (A549 cells; ON180 alone, Lipofectamine-2000 transfection, 1B, read-out: cell growth IC50) | effect of gefitinib on proliferation (15PC3 cells; gefitinib 20 μM, 48 hours) | effect of gefitinib on proliferation (DU145 cells; gefitinib 40 μM, 48 hours) | sensitivity of cells to gefitinib (SKBR3 cells; gefitinib alone) | effect of gefitinib alone on proliferation (A549 cells; gefitinib 40 μM, 48 hours) |
| --- | --- | --- | --- | --- | --- | --- | --- | --- | --- | --- | --- | --- | --- | --- | --- | --- |
| 5′-TsAsGscscstsgstscsascststs^MeCsTs^MeC-3′ (lT*lA*lG*dC*dC*dT*dG*dT*dC*dA*dC*dT*dT*l[5mC]*lT*l[5mC]) [ON180] | < 2 nM | effectively inhibited | < 1 nM | 1 nM | < 2 nM | potently inhibited | < 5 nM | effectively inhibited | potently inhibited | effectively inhibited | < 5 nM | < 5 nM |  |  |  |  |
| COc1cc2ncnc(Nc3ccc(F)c(Cl)c3)c2cc1OCCCN1CCOCC1 [gefitinib, reference compound] |  |  |  |  |  |  |  |  |  |  |  |  | did not affect proliferation | did not affect proliferation | sensitive | did not affect proliferation |

— patent US20120004285A1, “ERBB-3 (HER3)-SELECTIVE COMBINATION THERAPY” (ENZON PHARMACEUTICALS, INC., priority 2008, published 2012)
